Columns and labels:
Assay in all cases: relative viability (nuclei count vs DMSO), 5 days (fraction); higher = more cells survive
[1] = compound: CC1=NN=C(O1)C2=NN=C(C=C2)N3CCC(CC3)OC4=C(C=CC(=C4)F)Cl + O=C(c1cc(Cc2n[nH]c(=O)c3ccccc23)ccc1F)N1CCN(C(=O)C2CC2)CC1 [Olaparib] (partner 8 µM)
Method in brief: (§1)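 A single step with final 0.05% Triton X-100, 1% formaldehyde and 1 ug/ml Hoechst fixed the cells and stained nuclei 5 days after treatment. Lung cancer cell lines in 1536-well plates had been treated by pin tool the day after seeding with one drug alone or a fixed anchor-drug dose plus five library-drug doses (not always all listed) in √10 steps, and nuclei were counted on 4× images. Relative viability is the ratio of nuclei in treated wells to nuclei in vehicle wells, taken as the median of duplicate plates.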

Tosedostat + Luminespib = compound: CC(C)C[C@@H](C(=O)N[C@H](C(=O)OC1CCCC1)c1ccccc1)[C@H](O)C(=O)NO [Tosedostat] + CCNC(=O)c1noc(-c2cc(C(C)C)c(O)cc2O)c1-c1ccc(CN2CCOCC2)cc1 [Luminespib] (partner 0.01 µM)
Method in brief: as §1

[2] = compound: CC1=NN=C(O1)C2=NN=C(C=C2)N3CCC(CC3)OC4=C(C=CC(=C4)F)Cl + CS(=O)(=O)N1CCN(Cc2cc3nc(-c4cccc5[nH]ncc45)nc(N4CCOCC4)c3s2)CC1 [Pictilisib] (partner 1 µM)
Method in brief: as §1

Tosedostat + Trametinib = compound: CC(C)C[C@@H](C(=O)N[C@H](C(=O)OC1CCCC1)c1ccccc1)[C@H](O)C(=O)NO [Tosedostat] + CC(=O)Nc1cccc(-n2c(=O)n(C3CC3)c(=O)c3c(Nc4ccc(I)cc4F)n(C)c(=O)c(C)c32)c1 [Trametinib] (partner 0.02 µM)
Method in brief: as §1

Cell Line	relative viability ([1]; first compound 0.253 µM)	relative viability ([1]; first compound 0.8 µM)	relative viability ([1]; first compound 2.53 µM)	relative viability ([1]; first compound 8 µM)	relative viability (Tosedostat + Luminespib; first compound 0.02 µM)	relative viability (Tosedostat + Luminespib; first compound 0.06325 µM)	relative viability (Tosedostat + Luminespib; first compound 0.2 µM)	relative viability (Tosedostat + Luminespib; first compound 0.6325 µM)	relative viability (Tosedostat + Luminespib; first compound 2 µM)	relative viability ([2]; first compound 0.253 µM)	relative viability ([2]; first compound 0.8 µM)	relative viability ([2]; first compound 2.53 µM)	relative viability ([2]; first compound 8 µM)	relative viability (Tosedostat + Trametinib; first compound 0.02 µM)	relative viability (Tosedostat + Trametinib; first compound 0.06325 µM)	relative viability (Tosedostat + Trametinib; first compound 0.2 µM)	relative viability (Tosedostat + Trametinib; first compound 0.6325 µM)	relative viability (Tosedostat + Trametinib; first compound 2 µM)
201T	0.409	0.382	0.389	0.383	0.969	1.2	1.14	1.24	1.18	0.537	0.634	0.681	0.663	0.673	0.743	0.732	0.745	0.781
A549	0.235	0.0638	0.409	0.163						0.406	0.255	0.319	0.234					
A-427	0.527	0.634	0.744	0.669	0.882	0.739	1.01	0.919	1.08	0.859		0.675	0.54	0.789	0.748	0.818	0.719	0.701
ABC-1	0.664	0.506	0.488	0.638	0.622	0.706	0.596	0.647	0.398	0.389	0.532	0.547	0.464					
BEN	1.2	0.767	0.966	1.07	0.467	0.387	0.264	0.435	0.248	0.571	0.62	0.68	0.584	1.17	1	1.09	1.21	1.38
CAL-12T	0.639	0.68	0.651	0.644	0.364	0.304	0.834	0.713	0.353	0.392	0.553	0.327	0.191	0.393	0.364	0.339	0.394	0.325
COR-L23	0.259	0.271	0.345	0.299	0.792	0.729	0.687	0.698	0.504	0.66	0.621	0.686	0.469	0.698	0.594	0.587	0.491	0.508
COR-L 105	0.556	0.703	0.819	0.901	0.693	0.726	0.835	0.733	0.693	0.426	0.405	0.334	0.378	0.493	0.431	0.422	0.476	0.369
Calu-6	0.381	0.389	0.385	0.384						0.735	0.747	0.702	0.696					
ChaGo-K-1	0.298	0.255	0.354	0.28	0.648	0.598	0.836	0.572	0.491	0.633	0.681	0.508	0.548	0.903	0.862	0.895	0.867	0.645
EBC-1	0.485	0.538	0.509	0.438						0.33	0.485	0.473	0.408					
EKVX	0.402	0.381	0.464	0.494	0.796	0.884	0.853	0.784	0.806	0.323	0.31	0.388	0.345	0.229	0.338	0.433	0.373	0.292
EMC-BAC-2	0.376	0.414	0.457	0.441	1.26	1.06	1.17	1.15	0.986	0.534	0.531	0.572	0.454	0.942	0.849	0.83	0.727	0.675
EPLC-272H	0.744	0.742	0.758	0.657	0.246	0.265	0.278	0.285	0.225	0.399		0.41	0.309	0.29	0.296	0.305	0.324	0.25
H3255	0.483	0.498	0.5	0.527	1.02	0.807	0.906	0.683	0.75	0.505	0.438	0.433	0.397	0.61	0.582	0.528	0.608	0.599
HARA	0.331	0.244	0.317	0.256	0.683	0.554	0.766	0.481	0.779	0.263	0.282	0.336	0.191	0.85	0.636	0.91	0.745	0.631
HCC-15	0.354	0.305	0.348	0.337	0.408	0.269	0.78	0.211	0.308	0.583	0.566	0.6	0.546	0.394	0.353	0.408	0.363	0.305
HCC-44	0.295	0.358	0.346	0.363	1.29	0.987	0.985	0.957	0.834	0.42	0.444	0.578	0.472	1.21	1.11	1.09	1.13	1.17
HCC-78	0.454	0.384	0.387	0.456						0.204	0.234	0.11	0.184	0.729	0.722	0.664	0.795	0.659
HCC-366	0.117	0.139	0.258	0.157						0.12	0.197	0.15	0.142	0.36	0.358	0.322	0.311	0.374
